According to paper PMC10861560, “Exploiting epigenetic targets to overcome taxane resistance in prostate cancer” (Cell Death & Disease, 2024):

Biological target: T1, ABCB1 (MDR1) (Homo sapiens, UniProt P08183)
T1 construct: endogenous full-length protein in intact Du145-DtxR cells, detected by western blot after heat shock
Assay: cellular thermal shift assay (CETSA), western blot
Format: cell-based
Conditions: 5 µM, intact Du145-DtxR cells, 1 h at 37 °C, heat shock 44-52 °C; positive control

T1 sequence (P08183 whole entry): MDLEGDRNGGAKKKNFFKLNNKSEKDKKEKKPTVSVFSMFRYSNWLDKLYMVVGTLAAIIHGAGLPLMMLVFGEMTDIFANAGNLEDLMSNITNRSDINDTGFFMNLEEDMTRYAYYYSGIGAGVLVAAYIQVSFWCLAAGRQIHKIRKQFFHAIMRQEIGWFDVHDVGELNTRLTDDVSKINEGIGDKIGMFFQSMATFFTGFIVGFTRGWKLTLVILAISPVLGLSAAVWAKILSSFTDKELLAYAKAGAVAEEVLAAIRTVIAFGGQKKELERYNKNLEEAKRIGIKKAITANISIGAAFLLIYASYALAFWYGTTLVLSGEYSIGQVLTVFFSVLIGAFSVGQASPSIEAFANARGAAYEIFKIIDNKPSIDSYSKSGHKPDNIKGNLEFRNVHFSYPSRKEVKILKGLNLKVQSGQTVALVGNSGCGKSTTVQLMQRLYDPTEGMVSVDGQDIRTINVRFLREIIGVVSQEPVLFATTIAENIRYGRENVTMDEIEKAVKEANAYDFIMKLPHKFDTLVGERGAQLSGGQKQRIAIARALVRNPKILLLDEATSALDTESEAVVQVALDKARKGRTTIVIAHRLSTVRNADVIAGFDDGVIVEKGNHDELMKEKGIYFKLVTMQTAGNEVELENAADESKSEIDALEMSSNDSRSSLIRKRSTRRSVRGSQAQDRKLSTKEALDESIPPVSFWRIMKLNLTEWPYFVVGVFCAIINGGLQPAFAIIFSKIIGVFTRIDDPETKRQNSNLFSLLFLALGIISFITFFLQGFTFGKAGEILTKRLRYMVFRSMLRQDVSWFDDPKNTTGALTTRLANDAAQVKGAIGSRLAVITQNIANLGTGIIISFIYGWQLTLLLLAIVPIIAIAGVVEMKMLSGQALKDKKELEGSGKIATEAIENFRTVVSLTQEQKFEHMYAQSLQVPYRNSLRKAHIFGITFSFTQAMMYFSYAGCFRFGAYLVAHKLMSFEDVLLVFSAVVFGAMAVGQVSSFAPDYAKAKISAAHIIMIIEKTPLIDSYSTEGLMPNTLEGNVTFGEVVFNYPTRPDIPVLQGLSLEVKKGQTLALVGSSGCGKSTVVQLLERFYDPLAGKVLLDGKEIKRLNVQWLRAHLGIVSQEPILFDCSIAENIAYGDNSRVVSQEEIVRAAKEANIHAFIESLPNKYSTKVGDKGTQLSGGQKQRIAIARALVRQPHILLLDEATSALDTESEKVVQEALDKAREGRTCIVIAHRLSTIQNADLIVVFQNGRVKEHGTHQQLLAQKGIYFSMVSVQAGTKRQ

SMILES: O[C@@H](COc1cccc2ncccc12)CN1CCN([C@@H]2c3ccccc3[C@@H]3[C@H](c4ccccc42)C3(F)F)CC1 [Zosuquidar]
- cellular thermal shift assay (CETSA), western blot: it showed an ABCB1-binding compared to DMSO (Fig. 3H)
